Measurements: patent publication US8980933B2, “Combretastatin analogs for use in the treatment of cancer” (Universitat Bayreuth, priority 2010, dated 2015)

Key:
[1] = test system: 1411HP germ cell tumor cell line; test: SRB-cytotoxicity assay, 1411HP; format: cell-based, human; details: for effect on multi-drug resistance of 1411HP cells: compared with cisplatin
Experimental: The cytotoxic activity of 5b was established by standard colorimetric tests (SRB- and MTT-assays) against various tumor cell lines of different entities. For the SRB cytotoxicity assay, dose-response curves of the testicular germ cell tumor cell lines exposed to drug concentrations of 0.001-10 μM were established using the sulforhodamine-B (SRB) microcuiture colorimetric assay (Papazisis et al. Optimization of the sulforhodamine B colorimetric assay. J. Immunol. Methods 1997, 208, 151-158) and performed as described in: Müller et al. Failure of activation of caspase-9 induces a higher threshold for apoptosis and cisplatin resistance in testicular cancer. Cancer Res. 2003, 63, 513-521. Briefly, cells were seeded into 96-well plates on day 0, at cell densities previously determined to ensure exponential cell growth during the period of the experiment. On day 1, cells were treated with the drugs dissolved in medium to give the appropriate concentrations for indicated times and the percentage of surviving cells relative to untreated controls was determined on day 5.

HL-60 cells = test: TUNEL assay; format: cell-based, human; details: 10 μM; 16 h incubation
[2] = test system: HT-29 colon carcinoma cells; test: MTT cell growth inhibition, HT-29; format: cell-based, human; details: for IC50 concentration: combretastatin A-4 resistant HT-29 cells; for cytotoxicity (comparison): multi-drug resistant HT-29 colon cancer cells
Experimental: The effects of the compounds 5b, 6b, 8a, and 8e according to the present invention and of the reference compound 25f (Wang et al., J. Med. Chem. 2002, 45, 1697-1711) on cells of the following human tumor cell lines were evaluated: 518A2 melanoma, HL-60 leukemia, HT-29 colon carcinoma, KB-V1/Vbl cervical carcinoma, and MCF-7/Topo breast carcinoma.
The HL-60 cells were obtained from the German Collection of Biological Material (DSMZ), Braunschweig, Germany; the human 518A2 melanoma cells as well as the testicular germ cell tumor cell lines H12.1 and 1411HP were cultured in the department of oncology and hematology, Medical Faculty of the Martin-Luther University, Halle, Germany; the KBV1/Vbl and the MCF-7/Topo cells were obtained from the Institute of Pharmacy of the University Regensburg, Germany; and the colon HT-29 cells from the University Hospital Erlangen, Germany. The HL-60 and the HT-29 cells were grown in RPMI-1640 medium supplemented with 10% fetal calf serum (FCS), 100 IU/mL penicillin G, 100 μg/mL streptomycin sulfate, 0.25 μg/mL amphotericin B and 250 μg/mL gentamycine (all from Gibco, Egenstein, Germany). The 518A2 and the KB-V1/Vbl cells were cultured in Dulbecco's Modified Eagle Medium (D-MEM, Gibco) containing 10% FCS, 100 IU/mL penicillin G, 100 μg/mL streptomycin sulfate, 0.25 μg/mL amphotericin B and 250 μg/mL gentamycine. The MCF-7/Topo cells were grown in E-MEM medium (Sigma) supplemented with 2.2 g/L NaHCO3, 110 mg/L sodium pyruvate and 5% FCS. The cells were maintained in a moisture-saturated atmosphere (5% CO2) at 37° C. in 75-mL culture flasks (Nunc, Wiesbaden, Germany). They were serially passaged following trypsinisation by 0.05% trypsin/0.02% EDTA (PAA laboratories, Clbe, Germany). Mycoplasma contamination was routinely monitored, and only mycoplasma-free cultures were used.
MTT [3-(4,5-dimethylthiazol-2-yl)-2,5-diphenyltetrazolium bromide](ABCR) was used to identify viable cells which reduce it to a violet formazan (Mosmann, J. Immunol. Methods 1983, 65, 55-63). HL-60 leukemia cells (5×10^5/mL), and cells (5×10^4/mL) of 518A2 melanoma, HT-29 colon, KB-V1/Vbl cervix and MCF-7/Topo breast carcinoma were seeded out in 96-well tissue culture plates and cultured for 24 h. Incubation (5% CO2, 95% humidity, 37° C.) of the cells following treatment with the test compounds was continued for 24, 48 or 72 h. Blank and solvent controls were treated identically. MTT in phosphate buffered saline (5 mg/mL) was added to a final concentration of 0.05% (HL-60, 518A2) or 0.1% (HT-29, KB-V1/Vbl, MCF-7/Topo). After 2 h the formazan precipitate was dissolved in 10% sodium dodecylsulfate in DMSO containing 0.6% acetic acid in the case of the HL-60 cells. For the adherent 518A2, KB-V1/Vbl, MCF-7/Topo and HT-29 cells the microplates were swiftly turned to discard the medium before adding the solvent mixture. The microplates were gently shaken in the dark for 30 min and absorbance at 570 nm and 630 nm (background) was measured with an ELISA plate reader. All experiments were carried out in quadruplicate; the percentage of viable cells was calculated as the mean±SD with controls set to 100%.

[3] = Toxicity / tolerability in mice; format: in vivo
Experimental: Prior to testing compound 5b, healthy animals of this type were treated with an ascending range of doses of 5b in order to establish a toxicity profile. […] Suitable dosages were then administered in further tests in a nude mouse xenograft model of a pair of germ cell tumor cell lines, the chemoresistant cell line 1411HP and the chemosensitive cell line H12.1. These cell lines retain their individual in vitro chemosensitivities to cisplatin when grown as xenograft tumors and so may serve as a model of the clinical situation of resistance to chemotherapy (Mueller et al. Cancer Res. 2003; Mueller et al. Tumor Biol. 2006).
Compounds 5b, 6b and 6f were also tested in terms of feasibility of oral administration. Mice received a single dose of 40 mg/kg body weight of 5b, 6b or 6f, respectively. […] Then compounds 6b or 6f were given peroral as dual-dose application on two consecutive days in accordance to the i.p. treatment scheme used for the regression trials but with a 2-fold higher dose of 2×40 mg/kg body weight.

518A2 cells = test: ROS generation, NBT assay, 518A2; format: cell-based, human; details: 50 μM, relative to untreated controls (1%), mean ± SD
Experimental: The generation of reactive oxygen species (ROS) in tumor cells is a sign of cellular stress resulting in severe damage of cellular components such as DNA, lipids or proteins.
For the NBT assay, HL-60 cells (0.5·10^6/mL) were plated in 96-well tissue culture plates, and test compounds were added after 24 h incubation at 37° C. to achieve a final concentration of 50 μM. […] After removal of the cell medium by centrifugation, the cells in each well were resuspended in 100 μL 0.1% NBT, and the plates were placed in the incubator for 1 h. The reduced NBT was solubilized with 100 μl 2 M KOH and 130 μl DMSO for 30 min. The absorbance was measured for each well at 630 and 405 nm (background) using an ELISA plate reader. The adherent 518A2 cells (0.5·10^4/mL) were seeded out in 96-well tissue culture plates after trypsinization and incubation for 24 h at 37° C. to allow attachment, then treated similarly, only that the medium was removed prior to incubation with NBT for 4 h. All experiments were carried out in quadruplicate.

SMILES | IC50 ([1]; Homo sapiens, 1411HP (chemoresistant), 96 h) [nM] | effect on multi-drug resistance of 1411HP cells [1] | apoptotic (TUNEL-positive) cells (HL-60 cells) | IC50 concentration [2] | cytotoxicity (comparison) [2] | toxicity profile ([3]; healthy mice, ascending range of doses) | toxicity after oral administration ([3]; single dose 40 mg/kg oral) | NBT Reduction [%] in 518A2 cells after 24 h (518A2 cells) [%] | toxicity after oral administration ([3]; peroral dual-dose 2×40 mg/kg on two consecutive days) | toxicity after oral administration ([3]; single dose 60 mg/kg peroral)
COc1ccc(-c2c(-c3cc(Cl)c(OC)c(OC)c3)ncn2C)cc1N [compound 5b, 1-methyl-5-(3-amino-4-methoxyphenyl)-4-(3-chloro-4,5-dimethoxyphenyl)-imidazole] | 30 to 50 | breach of the multi-drug resistance of 1411HP cells | about 60% | single-digit nanomolar range | able to overcome the drug resistance in these cancer cells in vitro | very well tolerated by the mice even at relatively high concentrations | No signs of toxicity were observed | 1.8 ± 0.2 |  | 
COc1ccc(-c2c(-c3cc(Br)c(OC)c(OC)c3)ncn2C)cc1N [compound 6b, 1-methyl-5-(3-amino-4-methoxyphenyl)-4-(3-bromo-4,5-dimethoxyphenyl)-imidazole] |  | breach of the multi-drug resistance of 1411HP cells | about 60% | single-digit nanomolar range | able to overcome the drug resistance in these cancer cells in vitro |  | No signs of toxicity were observed | 1.5 ± 0.2 | well tolerated and induced only a transient and marginal loss of body weight | No signs of toxicity were observed
